Assay results as given in PubChem BioAssay AID977630 (Broad Institute, 2014).
Inconclusive results are not listed. Active and inactive are the calls of the source.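 Rule for the calls: active = Normal-ribosome green reporter loss at least double humanized-ribosome red reporter loss, with overall culture growth inhibition under a set limit; inconclusive = no clear call, values can overlap the other calls; inactive = the rest.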

System: E. coli wild-type GFP growth, mixed culture, 24 h
Test: E. coli growth inhibition, wild-type GFP versus H38 humanized RFP strain – H38 mutant RFP vs wild-type GFP, cherry-pick, dose response (AID 977630)
[1] = E. coli mixed culture total OD600 growth, 24 h

SMILES | AC50 | AC50 [1] [µM]
COC(=O)c1ccc(OS(=O)(=O)c2ccc(NC(C)=O)cc2)cc1 | > 100 µM (inactive) | > 100
COc1ccc(OC)c(-c2csc(NC(=O)C3COc4ccccc4O3)n2)c1 (stereo not drawn) | > 100 µM (inactive) | –
Cc1ccccc1-n1c([C@@H]2C[C@H]2c2ccccc2)n[nH]c1=S | > 100 µM (inactive) | –
CCN(c1ccccc1)S(=O)(=O)c1ccc(OC)c(NC(=O)C2CC(=O)N(Cc3ccccc3)C2)c1 (stereo not drawn) | > 100 µM (inactive) | –
Cc1cccc(NC(=O)CN(C)S(=O)(=O)c2cccs2)c1 | > 100 µM (inactive) | –
Nc1ccc(C(=O)Nc2ccc3nc(-c4ccncc4)[nH]c3c2)cc1 | – | > 100
CCNC(=O)C1(C)CCCN(Cc2cccc3ccccc23)C1 (stereo not drawn) | > 100 µM (inactive) | –
COc1cc(CC(=O)Nc2nc(C)cs2)cc(OC)c1OC | – | > 100
O=c1[nH]c(C2CCN(S(=O)(=O)c3ccc4c(c3)OCCO4)CC2)nc2c1nnn2Cc1ccccc1F | > 100 µM (inactive) | > 100
Cc1ccc(SCC(=O)Nc2ccc(S(=O)(=O)Nc3nccs3)cc2)cc1 | > 100 µM (inactive) | –
CN(C)S(=O)(=O)c1ccc(Cl)c(C(=O)OCC(=O)NC(=O)c2cccn2C)c1 | > 100 µM (inactive) | –
Cc1cc(C)n(CC(O)COc2ccc3ccccc3c2)n1 (stereo not drawn) | > 100 µM (inactive) | > 100
Cc1nc(SCC(=O)Nc2ccc3c(c2)OCCO3)nc(C)c1C | > 100 µM (inactive) | > 100
FC(F)(F)c1ccc(Cl)c(-n2c(Cc3cccs3)n[nH]c2=S)c1 | > 100 µM (inactive) | –
CCC1(CC)NC(=O)N(CC(=O)N2N=C(c3ccc(Cl)cc3)CC2c2ccco2)C1=O (stereo not drawn) | > 100 µM (inactive) | –
O=C(Cc1c(Cl)cccc1Cl)Nc1cccc(S(=O)(=O)N2CCOCC2)c1 | > 100 µM (inactive) | –
Cc1cc(C(=O)COC(=O)CNC(=O)c2ccccc2)c(C)n1CC1CCCO1 (stereo not drawn) | > 100 µM (inactive) | –
Cc1onc(-c2ccccc2Cl)c1C(=O)Nc1ccc(Cl)cn1 | > 100 µM (inactive) | –
COC(=O)c1c(NC(=O)CCC(=O)O)sc(Cc2ccccc2)c1C | 3.63 µM | –
S=c1nc(-c2cccc(Br)c2)[nH][nH]1 | – | > 100
Cc1noc(C)c1COc1cccc(C(=O)N2CCc3ccccc32)c1 | > 100 µM (inactive) | –
Cc1cccc(NC(=O)c2c(C)nn(-c3ccccc3)c2Cl)c1 | – | 41.6
Cc1cc(C(=O)NCCC2=CCCCC2)ccc1[N+](=O)[O-] | > 100 µM (inactive) | –
CC(C)(C)CC(=O)NCCc1csc(-c2ccccc2)n1 | > 100 µM (inactive) | –

SMILES | AC50 | AC50 [1] [µM]
Cc1cccc(C(=O)NCC(=O)NCCSc2ccc(Br)cc2)c1 | > 100 µM (inactive) | –
COc1ccc(NC(=O)CN(c2ccccc2OC)S(=O)(=O)c2cccs2)cc1Cl | > 100 µM (inactive) | –
COc1cccc(-c2ccc(NC(=O)C3CCCN(Cc4cnn(C(C)C)c4)C3)cc2)c1 (stereo not drawn) | – | > 100
COc1cc(OC)cc(C(=O)Nc2ccc(C(=O)Nc3ccccc3OC)cc2)c1 | > 100 µM (inactive) | –
CCCNc1ccc(C(=O)OCC)cc1[N+](=O)[O-] | > 100 µM (inactive) | > 100
Nc1[nH]c(C(=O)c2ccccc2)c(-c2ccc(Cl)cc2)c1C(=O)NCCc1c[nH]c2ccccc12 | > 100 µM (inactive) | > 100
COCC(C)NC(=O)c1nn(Cc2ccccc2)c(=O)c2ccccc12 (stereo not drawn) | > 100 µM (inactive) | > 100
Cc1ccc(NC(=O)c2ccc([N+](=O)[O-])s2)cc1S(=O)(=O)N1CCOCC1 | > 100 µM (inactive) | > 100
O=C(Nc1cccc(O)c1)c1cccc(S(=O)(=O)Nc2cccc(O)c2)c1 | > 100 µM (inactive) | > 100
CC1CCCN(C(=O)C(C)Nc2cc(Cl)ccc2N2CCOCC2)C1 (stereo not drawn) | > 100 µM (inactive) | –
S=c1nc(-c2cc(Cl)cc(Cl)c2)[nH][nH]1 | > 100 µM (inactive) | –
COc1ccc(OC)c(NC(=O)CN(C)CC(=O)Nc2ccccc2Br)c1 | > 100 µM (inactive) | –
COc1ccc(-c2csc(NC(=O)c3ccccc3S(C)(=O)=O)n2)cc1 | – | > 100
Cc1ccccc1Nc1c(-c2cccnc2)nc2ccc(Br)cn12 | – | > 100
O=C(Nc1ccn(Cc2ccc(Cl)cc2)n1)c1ccccc1 | – | > 100
C=CCNC(=O)c1ccccc1CCc1ccccc1 | > 100 µM (inactive) | –
COC(=O)c1cc2c(c3c4cc(F)ccc4n(S(=O)(=O)c4ccccc4)c13)C(=O)N(Cc1ccco1)C2 | > 100 µM (inactive) | –
CN1CCN(c2nc(Nc3ccc(O)cc3)nc3ccccc23)CC1 | > 100 µM (inactive) | –
Cc1cccc(Oc2ccc(NC(=O)c3ccccc3C(=O)O)cc2)c1 | > 100 µM (inactive) | –
CCN(CC)S(=O)(=O)c1cccc(NC(=O)CNc2cccc(S(=O)(=O)N3CCCC3)c2)c1 | > 100 µM (inactive) | –
O=C(NCCc1csc(-c2ccccc2)n1)c1ccccc1F | > 100 µM (inactive) | –
CCN(CC(=O)Nc1cccc(C#N)c1)CC(=O)Nc1cccc(OC)c1 | > 100 µM (inactive) | –
CC(=O)Nc1ccc(-c2ccnc3c2CC(C)(C(=O)Nc2ccc4c(c2)OCO4)O3)cc1 (stereo not drawn) | > 100 µM (inactive) | –
CC1CCCN(c2ccc(C(=O)NCCc3ccccc3)cn2)C1 (stereo not drawn) | > 100 µM (inactive) | > 100
